Results taken from patent US20120016011A1, “RNA Interference Mediated Inhibition of Connective Tissue Growth Factor (CTGF) Gene Expression Using Short Interfering Nucleic Acid (siNA)” (Merck Sharp & Dohme Corp., priority 2009, published 2012).
[invAb] = inverted abasic unit; m = 2'-O-methyl; r = 2'-OH (RNA); f = 2'-fluoro

Assays:
[1] = test system: GAPDH mRNA; assay: GAPDH mRNA reduction (normalizer, check for toxicity) in siNA-transfected NHLF cells; assay type: cell-based; conditions: human NHLF cells, mean ± S.D.
Description: NHLF (Normal human lung fibroblasts; Lonza cat# CC-2512): Cells were cultured at 37° C. in the presence of 5% CO2 and grown in Fibroblast Basal Medium (Lonza cat# CC-3132) supplemented with 2% FBS and growth factors (provided with the kit) and 100 μg/mL of streptomycin and 100 U/mL penicillin.
Cells were plated in all wells of a tissue-culture treated, 96-well plate at a final count of 5000 cells/well in […], of the appropriate culture media. The cells were cultured for 24 hours after plating at 37° C. in the presence of 5% CO2.
After 24 hours, complexes containing siNA and RNAiMax were created as follows: A solution of RNAiMax diluted 33-fold in OPTI-MEM was prepared. In parallel, solutions of the siNAs for testing were prepared to a final concentration of 120 nM in OPTI-MEM. After incubation of RNAiMax/OPTI-MEM solution at room temperature for 5 min, an equal volume of the siNA solution and the RNAiMax solution were added together for each of the siNAs.
This solution was incubated at room temperature for 20 minutes. After incubation, 20 uL of the solution was added to each of the relevant wells. The final concentration of siNA in each well was 10 nM and the final volume of RNAiMax in each well was 0.3 ul.
The time of incubation with the RNAiMax-siNA complexes was 24 hours and there was no change in media between transfection and harvesting, unless otherwise indicated.
A series of probes and primers were used to detect the various mRNA transcripts of the genes of β-Actin (human cell line only), and of CTGF and GAPDH in mouse and human cell lines. All Taqman probes and primers for the experiments here-in described were supplied as pre-validated sets by Applied Biosystems, Inc. (see Table 3).
The assays were performed on an ABI 7900 instrument, according to the manufacturer's instructions. A TaqMan Gene Expression Master Mix (provided in the Cells-to-CT™, Applied Biosystems, Cat # 4399002) was used. The PCR reactions were carried out at 50° C. for 2 min, 95° C. for 20 min followed by 40 cycles at 95° C. for 15 secs and 60° C. for 1 min.
Additionally, only normalized data, which reflects the general health of the cell and quality of the RNA extraction, was examined. This was done by looking at the level of two different mRNAs in the treated cells, the first being the target mRNA and the second being the normalizer mRNA. This allowed for elimination of siNAs that might be potentially toxic to cells rather than solely knocking down the gene of interest. This was done by comparing the Ct for GAPDH in each well relative to the Ct for the entire plate.

[2] = test system: CTGF protein; assay: CTGF Western Blot in siNA-transfected NHLF cells (6-well plate); assay type: cell-based, human; conditions: for Mean % KD (30 nM, 72 h) n = 5: CTGF protein; for Mean % KD (30 nM, 72 h) n = 5 / Density (CTGF)/Density (α-Tubulin) (3 pM, 72 hours) / Density (CTGF)/Density (α-Tubulin) (300 pM, 72 hours) / Density (CTGF)/Density (α-Tubulin) (30 nM, 72 hours): NHLF cells; for Density (CTGF)/Density (α-Tubulin) (3 pM, 72 hours) / Density (CTGF)/Density (α-Tubulin) (300 pM, 72 hours): n = 3, ratio ± S.D.; for Density (CTGF)/Density (α-Tubulin) (30 nM, 72 hours): n = 5, ratio ± S.D.; for % Protein Reduction at 30 nM (72 hrs): human NHLF cells, mean ± S.D.
Description: NHLF cells were plated in 6-well plates at final counts of 70,000 cells/well in 2 ml of complete growth media. Transfection was performed using 2.5 uL of RNAiMax per well. Final concentration of siNAs was 30 nM (screen) and 30, 0.3, and 0.003 nM (dose response study). Protein lysates were harvested 24, 48, and 72 hours post-transfection (screen) and 72 hours post-transfection (dose response study). Protein lysates were prepared using Cell Extraction Buffer (Invitrogen, cat# FNN0011) according to manufacturer's instructions. Protein concentration was measured using a Bradford Quick Start Kit (Bio-Rad, cat# 500-0205).
The protein source for the Western Blot experiments were from transfection of NHLF cells in a 6 well plate, as described above.
Protein samples were diluted 1:1 in 2× Laemmli buffer with 5% β-mercapto-ethanol and incubated at 95° C. for 5 minutes. 40-50 ug of protein was loaded in each lane of 10% Tris-HCl gel. One lane was designated for MagicMark Protein Standard (Invitrogen # LC5602). The gel was run at 100V for approximately 2 hours. Protein was transferred to a PVDF membrane at 100V for 60 minutes. Once the transfer was finished, the membrane was blocked in 1% Casein in PBS (BioRad Cat#161-0783) for 1 hour on a plate rocker at room temperature followed by the overnight incubation at 4° C. with goat […] anti-CTGF primary antibody (Santa Cruz Biotechnology, cat# L-20) diluted 1:200 in 1% Casein in PBS. On the next day, the blot was washed 4×5 minutes in PBST (0.1% Tween-20 in PBS) solution and incubated for 30 minutes at room temperature with rabbit anti-goat secondary antibody (Pierce Biotechnology, cat# 31402) diluted 1:1,000 in 1% Casein in PBS. Then, the blot was washed 4×5 minutes with PBST and incubated for 1 minute with ECL Western Blotting Substrate (Pierce Biotechnology, Cat# 32106). The bands were visualized on the Bio-Rad VersaDoc Imager.
The protein bands were quantified by computing their density which is defined by the ratio between the total intensity of all pixels and the area of the rectangle drawn around each band (intensity/mm^2). The density was calculated by the BioRad software.
The level of protein was quantified using the Bio-Rad VersaDoc Imager according to the protocols of that piece of equipment. A pixel count was performed in each lane using an area of identical size. Each sample was then compared to the appropriate control treated sample and converted to a percent of protein remaining compared to control.
The effects of lead siNAs on CTGF protein level were compared to the effects of the universal control using a two tail Student's T-test to obtain a P value. P<0.05 was considered significant.
The densities of CTGF bands were normalized to the respective densities of α-Tubulin by calculating the ratio of the density of CTGF band and the density of α-Tubulin band. The ratios of the treatments were then compared to the ratio of the control group using an unpaired t-test with unequal variances.

Row | Substance | % Reduction GAPDH mRNA at 10 nM [1] | Mean % KD (30 nM, 72 h) n = 5 [2] | Density (CTGF)/Density (α-Tubulin) (3 pM, 72 hours) [2] | Density (CTGF)/Density (α-Tubulin) (300 pM, 72 hours) [2] | Density (CTGF)/Density (α-Tubulin) (30 nM, 72 hours) [2] | % Protein Reduction at 30 nM (72 hrs) [2]
1 | 48046-DC: siNA duplex; sense SEQ ID NO: 57 B cAcAGcAccAGAAuGuAuA TTB; antisense SEQ ID NO: 58 UAUAcAuucuGGuGcuGuGUU (sense CACAGCACCAGAAUGUAUATT; antisense UAUACAUUCUGGUGCUGUGUU; sense: DNA at AGT, 2'-fluoro at CU, [invAb] at 5' end, 3' end, backbone not given here; antisense: sugars from the 5' end rrrmfmffffmmfmffmfmmm, backbone not given here) | −53 ± 14% | 82 ± 11% | 0.56 ± 0.3 | 0.13 ± 0.08 | 0.11 ± 0.10 | 82 ± 11%
2 | 48042-DC: siNA duplex; sense SEQ ID NO: 49 B GAcAuuAAcucAuuAGAcu TTB; antisense SEQ ID NO: 50 AGUcuAAuGAGuuAAuGucUU (sense GACAUUAACUCAUUAGACUTT; antisense AGUCUAAUGAGUUAAUGUCUU; sense: DNA at AGT, 2'-fluoro at CU, [invAb] at 5' end, 3' end, backbone not given here; antisense: sugars from the 5' end rrrffmmfmmmffmmfmffmm, backbone not given here) | −43 ± 32% | 86 ± 13% | 0.45 ± 0.13 | 0.11 ± 0.06 | 0.09 ± 0.11 | 86 ± 13%
3 | 48048-DC: siNA duplex; sense SEQ ID NO: 61 B GAuAGcAucuuAuAcGAGu TTB; antisense SEQ ID NO: 62 ACUcGuAuAAGAuGcuAucUU (sense GAUAGCAUCUUAUACGAGUTT; antisense ACUCGUAUAAGAUGCUAUCUU; sense: DNA at AGT, 2'-fluoro at CU, [invAb] at 5' end, 3' end, backbone not given here; antisense: sugars from the 5' end rrrfmfmfmmmmfmffmffmm, backbone not given here) | −2 ± 10% | 83 ± 10% | 0.31 ± 0.2 | 0.09 ± 0.06 | 0.10 ± 0.10 | 83 ± 10%
4 | 48047-DC: siNA duplex; sense SEQ ID NO: 59 B cGAGuAAuAuGccuGcuAu TTB; antisense SEQ ID NO: 60 AUAGcAGGcAuAuuAcucGUU (sense CGAGUAAUAUGCCUGCUAUTT; antisense AUAGCAGGCAUAUUACUCGUU; sense: DNA at AGT, 2'-fluoro at CU, [invAb] at 5' end, 3' end, backbone not given here; antisense: sugars from the 5' end rrrmfmmmfmfmffmfffmmm, backbone not given here) | −5 ± 14% | 58 ± 26% | 0.51 ± 0.4 | 0.17 ± 0.1 | 0.22 ± 0.13 | 58 ± 26%
5 | 48055-DC: siNA duplex; sense SEQ ID NO: 75 B cAAGuuAuuuAAAucuGuu TTB; antisense SEQ ID NO: 76 AACAGAuuuAAAuAAcuuGUU (sense CAAGUUAUUUAAAUCUGUUTT; antisense AACAGAUUUAAAUAACUUGUU; sense: DNA at AGT, 2'-fluoro at CU, [invAb] at 5' end, 3' end, backbone not given here; antisense: sugars from the 5' end rrrmmmfffmmmfmmfffmmm, backbone not given here) | −18 ± 4% | 84 ± 5% | 0.28 ± 0.04 | 0.10 ± 0.06 | 0.09 ± 0.04 | 84 ± 5%
